Data on five compounds can be found in US12643855B2, “Fluorogenic dimer compound, useful as a probe for detection of endogenous receptors” (UNIVERSITE DE STRASBOURG, priority 2020, dated 2026).

Series [1] in a line: Absorption and fluorescence spectroscopy, DY647 dimers (Examples 2 and 3). It is filed as physicochemical. The settings on record: for λem, position of the emission maximum: excitation 600 nm; for Fluorescence turn-on: ratio of quantum yields in EtOH to that in water (200 nM), DY647 dimers. Here is the method: Absorption spectra were recorded on a Shimadzu UV-2700i spectrophotometer and fluorescence spectra on a Horiba Fluoromax 4 spectrofluorometer. Fluorescence emission spectra were systematically recorded at 600 nm excitation wavelength at 20° C. All fluorescence spectra were corrected for instrumental effects. Fluorescence quantum yields (QY) were measured using DID in MeOH as a reference (QY=33%).^[ref] Turn-ON were calculated as a ratio of QY of compounds in EtOH to QY in water. • Ref I. Texier, et al., J. Biomed. Opt. 2009, 14, 054005.

The nature of series [2]: Absorption and fluorescence spectroscopy of mCy5.5-PEG and dCy5.5-PEG in solvents of different polarities (Example 1). It is filed as physicochemical. The settings on record: for λem, position of the emission maximum: excitation 630 nm, 20° C.; for Difference in QY between organic solvents and water (turn-on response): QY in organic solvents vs water; for Fluorescence maxima: in organic solvents. The source says:
All fluorescence spectra were corrected for instrumental effects. […] To confirm the formation of the intramolecular dimer, the absorption spectra of two dyes were compared. […] This new band can be assigned to the non-fluorescent intramolecular dimer of the H-aggregate type, which is highly favored in aqueous medium. […] As a consequence, dCy5.5-PEG presented excellent fluorogenic properties, with up to 140-fold higher QY in organic solvents than in water. […] As the absorption spectrum of dCy5.5-PEG in the open form (in MeOH) is the same as that of the cyanine 2, the extinction coefficient of the dimer should be ca double of the monomer. The extinction coefficient for the cyanine 2, was measured to be 222 000 M^−1 cm^−1 in MeOH, which allows estimation of the extinction coefficient for the dimer dCy5.5-PEG: 222 000 M^−1 cm^−1×2=444 000 M^−1 cm^−1. Then, given its strong QY (56% in DMF), dCy5.5-PEG appears to be one of the brightest fluorogenic NIR dyes reported to date.

`COCC[N+]1=C(/C=C/C=C/C=C2/N(CCCCCC(=O)NCCCC[C@H](NC(=O)CCCCCN3/C(=C/C=C/C=C/C4=[N+](CCOC)c5ccc(S(=O)(=O)O)cc5C4(C)C)C(C)(C)c4cc(S(=O)(=O)[O-])ccc43)C(=O)NCCOCCOCCNC(=O)CCC(=O)NCCOCCOCCNC(=O)CCC(=O)OC(C)(C)C)c3ccc(S(=O)(=O)[O-])cc3C2(C)C)C(C)(C)c2cc(S(=O)(=O)O)ccc21` [A]: the “QY, fluorescence quantum yield” value in series [1] (Acetone) worked out at 3.4%; in series [1] (Acetonitrile), 19.8%; in series [1] (EtOH), 31.1%; in series [1] (H2O) it was 4.1%; in series [1] (MeOH) it was 28.2%. Further, the “λabs, position of the absorption maximum” value is reported as 661 nm in series [1] (Acetone); 656 nm in series [1] (Acetonitrile); 654 nm in series [1] (EtOH); 647 nm in series [1] (H2O); 651 nm in series [1] (MeOH). In addition, the “λem, position of the emission maximum” value in series [1] (Acetone) is 684 nm; in series [1] (Acetonitrile), 678 nm; in series [1] (EtOH), 676 nm; in series [1] (H2O) it was 671 nm; in series [1] (MeOH), 673 nm. Further, the Fluorescence turn-on in series [1] was 7.6.
Consider `COCC[N+]1=C(/C=C/C=C/C=C2/N(CCCCCC(=O)NCCOCCOCCNC(=O)CCC(=O)NCCCC[C@H](NC(=O)CCC(=O)NCCOCCOCCNC(=O)CCCCCN3/C(=C/C=C/C=C/C4=[N+](CCOC)c5ccc(S(=O)(=O)O)cc5C4(C)C)C(C)(C)c4cc(S(=O)(=O)[O-])ccc43)C(=O)NCCOCCOCCNC(=O)CCC(=O)NCCOCCOCCNC(=O)CCC(=O)OC(C)(C)C)c3ccc(S(=O)(=O)[O-])cc3C2(C)C)C(C)(C)c2cc(S(=O)(=O)O)ccc21` [B], for which the “QY, fluorescence quantum yield” value in series [1] (Acetone) stood at 0.4%; in series [1] (Acetonitrile), 6.6%; in series [1] (EtOH) it was 35.1%; in series [1] (H2O) it was 7.6%; in series [1] (MeOH), 33.0%. Further, the “λabs, position of the absorption maximum” value came to 660 nm in series [1] (Acetone); 658 nm in series [1] (Acetonitrile); 653 nm in series [1] (EtOH); 648 nm in series [1] (H2O); 650 nm in series [1] (MeOH). For the same compound, the “λem, position of the emission maximum” value in series [1] (Acetone) is reported as 683 nm; in series [1] (Acetonitrile) it was 677 nm; in series [1] (EtOH), 673 nm; in series [1] (H2O) it was 666 nm; in series [1] (MeOH), 673 nm. Besides, in series [1], the Fluorescence turn-on is 4.6.
`COCCOCCOCCOCCOCCOCCOCCOCC[N+]1=C(/C=C/C=C/C=C2/N(CCCCCC(=O)O)c3ccc4ccccc4c3C2(C)C)C(C)(C)c2c1ccc1ccccc21.[I-]` [cyanine 2, 2-((1E,3E,5E)-5-(3-(5-carboxypentyl)-1,1-dimethyl-1,3-dihydro-2H-benzo[e]indol-2-ylidene)penta-1,3-dien-1-yl)-1,1-dimethyl-3-(2,5,8,11,14,17,20,23-octaoxapentacosan-25-yl)-1H-benzo[e]indol-3-ium iodide]: the Extinction coefficient in series [2] (in MeOH) is 222 000 M^−1 cm^−1.
As for `C#CCNC(=O)CCNC(=O)CCC(=O)NCCOCCOCCNC(=O)CCC(=O)NCCOCCOCCNC(=O)[C@H](CCCCNC(=O)CCC(=O)NCCOCCOCCNC(=O)CCCCCN1/C(=C/C=C/C=C/C2=[N+](CCOCCOCCOCCOCCOCCOCCOCCOC)c3ccc4ccccc4c3C2(C)C)C(C)(C)c2c1ccc1ccccc21)NC(=O)CCC(=O)NCCOCCOCCNC(=O)CCCCCN1/C(=C/C=C/C=C/C2=[N+](CCOCCOCCOCCOCCOCCOCCOCCOC)c3ccc4ccccc4c3C2(C)C)C(C)(C)c2c1ccc1ccccc21.O=C([O-])C(F)(F)F.O=C([O-])C(F)(F)F` [dCy5.5-PEG], the “QY, fluorescence quantum yield” value in series [2] (1,4-Dioxane) was 28%; in series [2] (DMF), 56%; in series [2] (EtOH), 26%; in series [2] (MeOH), 26%; in series [2] (Water), 0.4%. For the same compound, the “λabs, position of the absorption maximum” value in series [2] (1,4-Dioxane) is 689 nm; in series [2] (DMF) it was 685 nm; in series [2] (EtOH) it was 686 nm; in series [2] (MeOH), 682 nm; in series [2] (Water), 629 nm. Also, the “λem, position of the emission maximum” value turned out to be 718 nm in series [2] (1,4-Dioxane); 709 nm in series [2] (DMF); 710 nm in series [2] (EtOH); 705 nm in series [2] (MeOH); 700 nm in series [2] (Water). Further, in series [2], the “Difference in QY between organic solvents and water (turn-on response)” value is recorded as “up to 140 fold”. In addition, in series [2], the Fluorescence maxima entry is on record as “around 710 nm”. In addition, the “Extinction coefficient, estimation for the dimer” value in series [2] (open form (in MeOH), double of cyanine 2) is 444 000 M^−1 cm^−1.
Take `C#CCNC(=O)CCNC(=O)CCC(=O)NCCOCCOCCNC(=O)CCC(=O)NCCOCCOCCNC(=O)CCC(=O)NCCOCCOCCNC(=O)CCCCCN1/C(=C/C=C/C=C/C2=[N+](CCOCCOCCOCCOCCOCCOCCOCCOC)c3ccc4ccccc4c3C2(C)C)C(C)(C)c2c1ccc1ccccc21.O=C([O-])C(F)(F)F` [mCy5.5-PEG]: the “QY, fluorescence quantum yield” value is listed as 59% in series [2] (1,4-Dioxane); 50% in series [2] (DMF); 34% in series [2] (EtOH); 32% in series [2] (MeOH); 22% in series [2] (Water). The “λabs, position of the absorption maximum” value is given as 689 nm in series [2] (1,4-Dioxane); 686 nm in series [2] (DMF); 686 nm in series [2] (EtOH); 681 nm in series [2] (MeOH); 679 nm in series [2] (Water). The “λem, position of the emission maximum” value in series [2] (1,4-Dioxane) came out at 712 nm; in series [2] (DMF) it was 709 nm; in series [2] (EtOH) it was 709 nm; in series [2] (MeOH) it was 705 nm; in series [2] (Water) it was 700 nm. In addition, the “Difference in QY between organic solvents and water (turn-on response)” value in series [2] is listed as < 2.7 fold. The Fluorescence maxima result in series [2] is given as “around 710 nm”. In series [2] (in water and in MeOH), the Absorption maxima result is reported as “around 680 nm”.
